Values joined by “and” are separate entries in the source; they are usually repeats but may differ in a detail not shown here. Identical values can stand only once. Like-named read-outs stand apart in the source and are kept apart here.
Test system: ROUNDUP READY FLEX cotton
[1] = Table M1a, […], glyphosate 2520 g/ha, PMIDA 11.9 g/ha, control = no additive
[2] = Table M1a, […], glyphosate 5040 g/ha, PMIDA 23.9 g/ha, control = no additive
[3] = Table M3a, […], glyphosate 1260 g/ha, PMIDA 3.95 g/ha
[4] = Table M3a, […], glyphosate 2520 g/ha, PMIDA 7.90 g/ha
[5] = Table M3a, […], glyphosate 5040 g/ha, PMIDA 15.8 g/ha
[6] = Table H2a, […], glyphosate 2520 g/ha, PMIDA 11.9 g/ha
[7] = Table H2a, […], glyphosate 5040 g/ha, PMIDA 23.9 g/ha
[8] = Table AO1a, […], glyphosate 2520 g/ha, PMIDA 11.9 g/ha
[9] = Table AO1a, […], glyphosate 5040 g/ha, PMIDA 23.9 g/ha
[10] = Table D1a Study 3, glyphosate:dye 100:1, glyphosate 2520 g/ha, PMIDA 11.9 g/ha
[11] = Table D1a Study 3, glyphosate:dye 100:1, glyphosate 5040 g/ha, PMIDA 23.9 g/ha
[12] = Table D1a Study 2, glyphosate:dye 10:1, glyphosate 2520 g/ha, PMIDA 11.9 g/ha
[13] = Table D1a Study 2, glyphosate:dye 10:1, glyphosate 5040 g/ha, PMIDA 23.9 g/ha
[14] = Table D1a Study 2, glyphosate:dye 100:1, glyphosate 2520 g/ha, PMIDA 11.9 g/ha
[15] = Table D1a Study 2, glyphosate:dye 100:1, glyphosate 5040 g/ha, PMIDA 23.9 g/ha
[16] = Table D1a Study 2, glyphosate:dye 1000:1, glyphosate 2520 g/ha, PMIDA 11.9 g/ha
[17] = Table D1a Study 2, glyphosate:dye 1000:1, glyphosate 5040 g/ha, PMIDA 23.9 g/ha

Compound: [Ca+2].[Cl-].[Cl-] [Calcium chloride, Calcium chloride (anhydrous)]
- Necrosis Reduction Relative to Control [1]: 32%
- Necrosis Reduction Relative to Control [2]: 6%

Compound: O.O.O.O.O.O.O.O=S(=O)([O-])[O-].[Mg+2] [Magnesium sulfate, Magnesium sulfate heptahydrate]
- Necrosis Reduction Relative to Control (in vivo): 0% and 6%
- effect of metal salt on necrosis (in words) (in vivo): relatively little impact

Compound: Aluminum chloride hexahydrate
- Necrosis Reduction Relative to Control (in vivo): 95% and 71%

Compound: CC(O)C#CC(C)O (stereo not shown) [3-hexyne-2,5-diol]
- decrease of necrosis (in words) (in vivo): significantly decreased necrosis

Compound: O=C([O-])CC(O)(CC(=O)[O-])C(=O)[O-].[Fe+3] [Iron citrate, iron(III) citrate]
- Necrosis Reduction Relative to Control [3]: 100%
- Necrosis Reduction Relative to Control [4]: 97%
- Necrosis Reduction Relative to Control [5]: 75%
- reduction in necrosis, comparison of iron sources (in words) (in vivo): no significant difference

Compound: O=[N+]([O-])[O-].O=[N+]([O-])[O-].[Cu+2] [Cupric Nitrate, Cupric Nitrate (2.1) hydrate]
- Necrosis Reduction Relative to Control [1]: 92%
- Necrosis Reduction Relative to Control [2]: 68%

Compound: CCC(CO)(CO)CO [trimethylol-propane]
- Necrosis Reduction Relative to Control [6]: 0%
- Necrosis Reduction Relative to Control [7]: 0%

Compound: NC(N)=O [urea]
- Necrosis Reduction Relative to Control (Table H1a Study 2, glycerin 4% v/v or urea 8% v/v, glyphosate 2520 g/ha, PMIDA 11.9 g/ha): 36%
- Necrosis Reduction Relative to Control (Table H1a Study 2, glycerin 4% v/v or urea 8% v/v, glyphosate 5040 g/ha, PMIDA 23.9 g/ha): 13%
- reduction of necrosis (in words) (in vivo): significantly reduced necrosis

Compound: O=S([O-])[O-].[Na+].[Na+] [Sodium sulfite, sodium sulfite]
- Necrosis Reduction Relative to Control [8]: 39%
- Necrosis Reduction Relative to Control [9]: 0%

Compound: OCCOCCO [Diethylene glycol]
- decrease of necrosis (in words) (in vivo): significantly decreased necrosis

Compound: CCN(Cc1cccc(S(=O)(=O)[O-])c1)c1ccc(C(=C2C=CC(=[N+](CC)Cc3cccc(S(=O)(=O)[O-])c3)C=C2)c2ccc(O)cc2S(=O)(=O)[O-])cc1.[Na+].[Na+] [Fast Green FCF]
- Necrosis Reduction Relative to Coontrol [10]: 2%
- Necrosis Reduction Relative to Coontrol [11]: 0%

Compound: Nc1cc(S(=O)(=O)[O-])cc2cc(S(=O)(=O)[O-])c(N=Nc3ccccc3)c(O)c12.[Na+].[Na+] [FD&C Red #33]
- Necrosis Reduction Relative to Coontrol [10]: 6%
- Necrosis Reduction Relative to Coontrol [11]: 0%

Compound: O=C(O)CN(CC(=O)O)CP(=O)(O)O [PMIDA, N-(phosphonomethyl)iminodiacetic acid]
- Maximum necrosis (plateau) (Example 1, highest application rate and higher levels of PMIDA): 80-85%

Compound: COc1cc(S(=O)(=O)[O-])c(C)cc1N=Nc1c(O)ccc2cc(S(=O)(=O)[O-])ccc12.[Na+].[Na+] [FD&C Red #40]
- Necrosis Reduction Relative to Coontrol [10]: 11%
- Necrosis Reduction Relative to Coontrol [11]: 0%

Compound: polyethylene glycol 900
- decrease of necrosis (in words) (in vivo): significantly decreased necrosis

Compound: polyethylene glycol 200
- decrease of necrosis (in words) (in vivo): significantly decreased necrosis

Compound: O=C([O-])CN(CCN(CC(=O)[O-])CC(=O)[O-])CC(=O)[O-].[Fe+3].[Na+] [Iron + EDTA, iron(III) EDTA sodium salt hydrate]
- Necrosis Reduction Relative to Control [3]: 100%
- Necrosis Reduction Relative to Control [4]: 68%
- Necrosis Reduction Relative to Control [5]: 45%
- reduction in necrosis, comparison of iron sources (in words) (in vivo): significantly less effective

Compound: OCCCCO [1,4-butanediol]
- decrease of necrosis (in words) (in vivo): significantly decreased necrosis

Compound: OCC(O)CO [glycerin]
- Necrosis Reduction Relative to Control (Table H1a Study 1, additive 2% v/v, glyphosate 2520 g/ha, PMIDA 11.9 g/ha): 12%
- Necrosis Reduction Relative to Control (Table H1a Study 1, additive 2% v/v, glyphosate 5040 g/ha, PMIDA 23.9 g/ha): 14%
- Necrosis Reduction Relative to Control (Table H1a Study 1, additive 4% v/v, glyphosate 2520 g/ha, PMIDA 11.9 g/ha): 45%
- Necrosis Reduction Relative to Control (Table H1a Study 1, additive 4% v/v, glyphosate 5040 g/ha, PMIDA 23.9 g/ha): 41%
- reduction of necrosis (in words) (in vivo): significantly reduced necrosis

Compound: [Cl][Fe]([Cl])[Cl] [Ferric chloride]
- Necrosis Reduction Relative to Control [1]: 100%
- Necrosis Reduction Relative to Control [2]: 97%

Compound: COc1ccc(O)c(C(C)(C)C)c1 [butylated hydroxy anisole, butylated hydroxyanisole]
- Necrosis Reduction Relative to Control [8]: 80%
- Necrosis Reduction Relative to Control [9]: 29%

Compound: CCN(Cc1cccc(S(=O)(=O)[O-])c1)c1ccc(C(=C2C=CC(=[N+](C)C)C=C2)c2ccc(N(CC)Cc3cccc(S(=O)(=O)O)c3)cc2)cc1 [FD&C Violet #1]
- Necrosis Reduction Relative to Coontrol [10]: 37%
- Necrosis Reduction Relative to Coontrol [11]: 0%

Compound: CC(O)CC(C)(C)O (stereo not shown) [2-methyl-2,4-pentanediol]
- decrease of necrosis (in words) (in vivo): significantly decreased necrosis

Compound: O=C([O-])c1nn(-c2ccc(S(=O)(=O)[O-])cc2)c(O)c1N=Nc1ccc(S(=O)(=O)[O-])cc1.[Na+].[Na+].[Na+] [FD&C Yellow #5, 3-carboxy-5-hydroxy-1-p-sulfophenyl-4-p-sulfophenylazopyrazole trisodium salt]
- Necrosis Reduction Relative to Coontrol (Table D1a Study 1, glyphosate:dye 10:1, glyphosate 2520 g/ha, PMIDA 11.9 g/ha): 96%
- Necrosis Reduction Relative to Coontrol (Table D1a Study 1, glyphosate:dye 10:1, glyphosate 5040 g/ha, PMIDA 23.9 g/ha): 55%
- Necrosis Reduction Relative to Coontrol [12]: 84%
- % necrosis (2 DAT) [13]: 38%
- Necrosis Reduction Relative to Coontrol [13]: 51%
- % necrosis (2 DAT) [14]: 31%
- Necrosis Reduction Relative to Coontrol [14]: 18%
- % necrosis (2 DAT) [15]: 55%
- Necrosis Reduction Relative to Coontrol [15]: 29%
- % necrosis (2 DAT) [16]: 28%
- Necrosis Reduction Relative to Coontrol [16]: 26%
- % necrosis (2 DAT) [17]: 69%
- Necrosis Reduction Relative to Coontrol [17]: 12%
- decrease of PMIDA-induced necrosis by dye (in words) (dye as safening agent in glyphosate spray solutions): significantly decrease

Compound: Zinc sulfate heptahydrate
- effect of metal salt on necrosis (in words) (in vivo): significantly reduce necrosis

Compound: CC(C)CC(C)(O)C#CC(C)(O)CC(C)C (stereo not shown) [Surfynol 104A]
- Necrosis Reduction Relative to Control [6]: 50%
- Necrosis Reduction Relative to Control [7]: 8%
- decrease of necrosis (in words) (in vivo): significantly decreased necrosis

Compound: CCN(Cc1cccc(S(=O)(=O)[O-])c1)c1ccc(C(=C2C=CC(=[N+](CC)Cc3cccc(S(=O)(=O)[O-])c3)C=C2)c2ccccc2S(=O)(=O)[O-])cc1.[Na+].[Na+] [FD&C Blue #1]
- Necrosis Reduction Relative to Coontrol [12]: 66%
- % necrosis (2 DAT) [13]: 46%
- Necrosis Reduction Relative to Coontrol [13]: 41%

— patent US12089591B2 (priority 2005, dated 2024)
